The values below come from article PMC3724770 (ACS combinatorial science, 2012).

This experiment concerns the target T1, fms-like receptor tyrosine kinase-3 (FLT3) (Homo sapiens, UniProt P36888).
T1 sequence (P36888 27-993): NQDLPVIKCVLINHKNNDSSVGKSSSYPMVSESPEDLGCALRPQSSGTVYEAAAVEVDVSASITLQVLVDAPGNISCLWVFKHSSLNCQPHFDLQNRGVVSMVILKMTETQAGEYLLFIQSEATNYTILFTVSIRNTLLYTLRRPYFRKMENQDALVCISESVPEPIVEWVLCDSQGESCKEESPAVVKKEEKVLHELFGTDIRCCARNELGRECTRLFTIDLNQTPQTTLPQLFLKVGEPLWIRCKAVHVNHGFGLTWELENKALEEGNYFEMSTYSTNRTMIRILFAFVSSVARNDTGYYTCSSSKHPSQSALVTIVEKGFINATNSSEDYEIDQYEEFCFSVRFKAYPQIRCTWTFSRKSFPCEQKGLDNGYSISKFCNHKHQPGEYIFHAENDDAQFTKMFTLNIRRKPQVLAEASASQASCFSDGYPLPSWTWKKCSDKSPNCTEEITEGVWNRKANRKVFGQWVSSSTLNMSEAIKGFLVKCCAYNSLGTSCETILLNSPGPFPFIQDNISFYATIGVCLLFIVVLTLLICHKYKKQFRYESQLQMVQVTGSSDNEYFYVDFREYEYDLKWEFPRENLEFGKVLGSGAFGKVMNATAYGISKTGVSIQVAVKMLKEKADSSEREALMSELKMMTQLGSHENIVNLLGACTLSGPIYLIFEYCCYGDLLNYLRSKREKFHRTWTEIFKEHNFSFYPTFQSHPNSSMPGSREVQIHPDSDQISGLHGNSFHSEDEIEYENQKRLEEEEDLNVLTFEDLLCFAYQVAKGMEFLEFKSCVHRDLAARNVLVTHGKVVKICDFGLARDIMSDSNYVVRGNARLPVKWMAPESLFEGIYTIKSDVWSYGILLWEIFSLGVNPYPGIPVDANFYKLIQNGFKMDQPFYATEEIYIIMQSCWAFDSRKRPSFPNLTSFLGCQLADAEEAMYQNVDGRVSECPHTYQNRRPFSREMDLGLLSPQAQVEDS
The class given is biochemical.

One may read the IC50 as the concentration needed to halve the response being measured. `CCCCNc1ncnc2c(N3CCNCC3)c[nH]c12` [compound 9, N-butyl-7-(piperazin-1-yl)-5H-pyrrolo[3,2-d]pyrimidin-4-amine] showed an IC50 of 1920 nM.
